Experimental data as given in patent publication US20260167623A1 (NIKANG THERAPEUTICS, INC., priority 2022, published 2026).

What was measured:
[1] = biological target: T1, CDK2 (Homo sapiens, UniProt P24941); assay: Inhibition of CDK2: phospho-Rb (S807/811) HTRF measurement in OVCAR3 cells, 24 h; assay type: cell-based; settings: 24 h compound treatment, read-out: pRB_OVCAR3_24h
T1 construct: High-Throughput Measurement of Cellular Endogenous CDK2; endogenous in cells; host or cells: OVCAR3
Procedure, shortened: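 OVCAR3 cells, seeded overnight, were exposed to compounds at 0.3 to 10,000 nM for 24 h, then lysed. Rb S807/811 phosphorylation read by HTRF (665/620 nm ratio) after 4 h detection at room temperature; data normalized to DMSO and IC50 from four-parameter logistic fit.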

[2] = biological target: T1, CDK2; assay: High-throughput HTRF measurement of cellular endogenous CDK2 level (degradation, DC50/Dmax) in OVCAR3 cells, 6 h; assay type: cell-based; settings: 6 h compound treatment, HTRF total CDK2, read-out: DC50_OVCAR3_6h
Method: High-Throughput Measurement of Cellular Endogenous CDK2
Effects of compounds on cellular CDK2 level were monitored by a high-throughput HTRF assay.
To determine half maximal degradation concentration (DC50) and maximum degradation level (Dmax) values of compounds, cellular CDK2 level was measured in 96-well format using HTRF total CDK2 cellular kit (Cat #64CDK2TPEG) from Cisbio.
On Day 1, OVCAR3 cells were seeded into 96-well tissue-culture treated plates at 20,000 cells/well in 200 μL and incubated overnight at 37° C. in CO2 atmosphere. On Day 2 cells were treated with compounds at concentration ranging from 0.03 to 1,000 nM using HP D300 digital dispenser. 6 hours after compound treatment, cell culture media was removed by flicking the plate and tapping the plate against clean paper towel. Immediately 30 μL 1× lysis buffer was supplemented from the kit and added to each well and the plate is incubated at room temperature on shaker for 30 min. After homogenization by pipetting up and down, 8 μL cell lysate from 96-well cell culture plate was transferred to 384-well small volume white detection plate. 2 μL premixed detection solution was added and the plate is covered with sealer. To prepare the detection solution, d2 conjugated-CDK2 antibody and Eu-cryptate conjugated CDK2 antibody were diluted into detection buffer following manufacturer's instruction. Detection plates were incubated overnight at room temperature and read on ClarioStar (BMG Labtech) in TR-FRET mode (665 nM and 620 nM). The TR-FRET ratio (665 nM/620 nM) was plotted against the compound concentration and normalized to DMSO controls (0% degradation) and lysis buffer controls (100% degradation). Half maximal degradation concentration (DC 50) […] were calculated with a four-parameter logistic fit using GraphPad Prism (version 8; La Jolla, CA).
In the table below, AA indicates a DC50 of greater than or equal to 0.5 nM but less than 1 nM; A indicates a DC50 of greater than or equal to 1 nM but less than or equal to 10 nM; B indicates a DC50 of greater than 10 nM but less than or equal to 100 nM; C indicates a DC50 of greater than 100 nM but less than or equal to 1 μM; and D indicates a DC50 of greater than 1 μM […] but less than or equal to 5 μM. NT means not tested.

| Compound | IC50 [1] | DC50 [2] |
| --- | --- | --- |
| Cn1nc(N2CCC(=O)NC2=O)c2ccc(C3CCN(Cc4cccc(S(=O)(=O)N5CCC(Nc6ncc(Cl)cn6)CC5)c4)CC3)cc21 [Example 11, 1-(6-(1-(3-((4-((5-chloropyrimidin-2-yl)amino)piperidin-1-yl)sulfonyl)benzyl)-piperidin-4-yl)-1-methyl-1H-indazol-3-yl)dihydropyrimidine-2,4(1H,3H)-dione] | 100 to 500 nM | 1 to 10 nM |
| Cn1nc(N2CCC(=O)NC2=O)c2ccc(C3CCN(CC4(O)CCN(c5cc(S(=O)(=O)N6CCC(Nc7ncc(Cl)cn7)CC6)ccc5C#N)CC4)CC3)cc21 [Example 214, 4-((4-((5-chloropyrimidin-2-yl)amino)piperidin-1-yl)sulfonyl)-2-(4-((4-(3-(2,4-dioxotetrahydropyrimidin-1(2H)-yl)-1-methyl-1H-indazol-6-yl)piperidin-1-yl)methyl)-4-hydroxypiperidin-1-yl)benzonitrile] | 1 to 100 nM | 10 to 100 nM |
| Cn1nc(N2CCC(=O)NC2=O)c2ccc(C3CCN(CC4CCN(c5cccc(S(=O)(=O)N6CCC(Nc7ncc(Br)cn7)CC6)c5)CC4)CC3)cc21 [Example 199, 1-(6-(1-((1-(3-((4-((5-bromopyrimidin-2-yl)amino)piperidin-1-yl)sulfonyl)phenyl)piperidin-4-yl)methyl)piperidin-4-yl)-1-methyl-1H-indazol-3-yl)dihydropyrimidine-2,4(1H,3H)-dione] | 1 to 100 nM | 1 to 10 nM |
| Cn1c(=O)n(C2CCC(=O)NC2=O)c2cccc(N3CCN(CC4CCN(c5cc(S(=O)(=O)N6CCC(Nc7ncc(C(F)(F)F)cn7)CC6)ccc5C#N)CC4)CC3)c21 (stereo not drawn) [Example 217, 2-(4-((4-(1-(2,6-dioxopiperidin-3-yl)-3-methyl-2-oxo-2,3-dihydro-1H-benzo[d]imidazol-4-yl)piperazin-1-yl)methyl)piperidin-1-yl)-4-((4-((5-(trifluoromethyl)pyrimidin-2-yl)amino)piperidin-1-yl)sulfonyl)benzonitrile] | 1 to 100 nM | 10 to 100 nM |
| CN(C)c1cnc(NC2CCN(S(=O)(=O)c3cccc(CN4CCC(c5ccc6c(N7CCC(=O)NC7=O)nn(C)c6c5)CC4)c3)CC2)nc1 [Example 70, 1-(6-(1-(3-((4-((5-(dimethylamino)-pyrimidin-2-yl)amino)piperidin-1-yl)-sulfonyl)benzyl)piperidin-4-yl)-1-methyl-1H-indazol-3-yl)dihydropyrimidine-2,4(1H,3H)-dione] | > 2500 nM |  |
| Cn1nc(N2CCC(=O)NC2=O)c2cc(C3CCN(CC4CCN(c5cccc(S(=O)(=O)N6CCC(Nc7ncc(C(F)(F)F)cn7)CC6)c5)CC4)CC3)ccc21 [Example 137, 1-(1-methyl-5-(1-((1-(3-((4-((5-(trifluoro-methyl)pyrimidin-2-yl)amino)piperidin-1-yl)sulfonyl)phenyl)piperidin-4-yl)methyl)-piperidin-4-yl)-1H-indazol-3-yl)dihydropyrimidine-2,4(1H,3H)-dione] | 100 to 500 nM |  |
| Cn1c(=O)n(C2CCC(=O)NC2=O)c2cccc(C3CCN(CC4CCN(c5cc(C(F)(F)F)cc(S(=O)(=O)N6CCC(Nc7ncc(OC(F)F)cn7)CC6)c5)CC4)CC3)c21 (stereo not drawn) [Example 176, 3-(4-(1-((1-(3-((4-((5-(difluoromethoxy)pyrimidin-2-yl)amino)piperidin-1-yl)sulfonyl)-5-(trifluoromethyl)phenyl)piperidin-4-yl)methyl)piperidin-4-yl)-3-methyl-2-oxo-2,3-dihydro-1H-benzo[d]imidazol-1-yl)piperidine-2,6-dione] | 500 to 2500 nM |  |
| Cn1nc(N2CCC(=O)NC2=O)c2ccc(N3CCN(Cc4cccc(S(=O)(=O)N5CCC(Nc6ncc(Cl)cn6)CC5)c4)CC3)cc21 [Example 25, 1-(6-(4-(3-((4-((5-chloropyrimidin-2-yl)amino)piperidin-1-yl)sulfonyl)benzyl)-piperazin-1-yl)-1-methyl-1H-indazol-3-yl)dihydropyrimidine-2,4(1H,3H)-dione] | 100 to 500 nM |  |
| Cn1nc(N2CCC(=O)NC2=O)c2ccc(C3CN(CC4CCN(c5cccc(S(=O)(=O)N6CCC(Nc7ncc(Cl)cn7)CC6)c5)CC4)C3)cc21 [Example 249, 1-(6-(1-((1-(3-((4-((5-chloropyrimidin-2-yl)amino)piperidin-1-yl)sulfonyl)phenyl)piperidin-4-yl)methyl)azetidin-3-yl)-1-methyl-1H-indazol-3-yl)dihydropyrimidine-2,4(1H,3H)-dione] | 100 to 500 nM |  |

The remaining lines, values ahead:

| IC50 [1] | DC50 [2] | Compound |
| --- | --- | --- |
| 1 to 100 nM | 1 to 10 nM | Cn1nc(N2CCC(=O)NC2=O)c2ccc(C3CCN(CC4CCN(c5cccc(S(=O)(=O)N6CC[C@H](Nc7ncc(Cl)cn7)[C@H](F)C6)c5)CC4)CC3)cc21 (racemic) [Example 202, Rac-1-(6-(1-((1-(3-(((3R,4S)-4-((5-chloropyrimidin-2-yl)amino)-3-fluoropiperidin-1-yl)sulfonyl)phenyl)piperidin-4-yl)methyl)piperidin-4-yl)-1-methyl-1H-indazol-3-yl)dihydropyrimidine-2,4(1H,3H)-dione] |
| 1 to 100 nM | 10 to 100 nM | O=C1CCC(N2Cc3cc(N4CCC(CN5CCN(c6cccc(S(=O)(=O)N7CCC(Nc8ncc(Cl)cn8)CC7)c6)CC5)CC4)ccc3C2=O)C(=O)N1 (stereo not drawn) [Example 247, 3-(5-(4-((4-(3-((4-((5-chloropyrimidin-2-yl)amino)piperidin-1-yl)sulfonyl)phenyl)piperazin-1-yl)methyl)piperidin-1-yl)-1-oxoisoindolin-2-yl)piperidine-2,6-dione] |
| 1 to 100 nM | 10 to 100 nM | Cn1nc(N2CCC(=O)NC2=O)c2cc(F)c(C3CCN(CC4CCN(c5cc(S(=O)(=O)N6CCC(Nc7ncc(Cl)cn7)CC6)ccc5C#N)CC4)CC3)cc21 [Example 153, 4-((4-((5-chloropyrimidin-2-yl)amino)piperidin-1-yl)sulfonyl)-2-(4-((4-(3-(2,4-dioxotetrahydropyrimidin-1(2H)-yl)-5-fluoro-1-methyl-1H-indazol-6-yl)piperidin-1-yl)methyl)piperidin-1-yl)benzonitrile] |
| 1 to 100 nM | 10 to 100 nM | N#Cc1ccc(S(=O)(=O)N2CCC(Nc3ncc(Cl)cn3)CC2)cc1N1CCC(CN2CCC(c3cccc4c3oc(=O)n4C3CCC(=O)NC3=O)CC2)CC1 (stereo not drawn) [Example 197, 4-((4-((5-chloropyrimidin-2-yl)amino)piperidin-1-yl)sulfonyl)-2-(4-((4-(3-(2,6-dioxopiperidin-3-yl)-2-oxo-2,3-dihydrobenzo[d]oxazol-7-yl)piperidin-1-yl)methyl)piperidin-1-yl)benzonitrile] |
| 1 to 100 nM | 10 to 100 nM | Cn1c(=O)n(C2CCC(=O)NC2=O)c2cccc(C3CCN(CC4CCN(c5cc(S(=O)(=O)N6CCC(Nc7ncc(Cl)cn7)CC6)ccc5C#N)CC4)CC3)c21 (stereo not drawn) [Example 151, 4-((4-((5-chloropyrimidin-2-yl)amino)piperidin-1-yl)sulfonyl)-2-(4-((4-(1-(2,6-dioxopiperidin-3-yl)-3-methyl-2-oxo-2,3-dihydro-1H-benzo[d]imidazol-4-yl)piperidin-1-yl)methyl)piperidin-1-yl)benzonitrile] |
| 1 to 100 nM | 10 to 100 nM | Cn1nc(N2CCC(=O)NC2=O)c2cc(F)c(C3CCN(CC4CCN(c5cccc(S(=O)(=O)N6CCC(Nc7ncc(Cl)cn7)CC6)c5)CC4)CC3)cc21 [Example 99, 1-(6-(1-((1-(3-((4-((5-chloropyrimidin-2-yl)amino)piperidin-1-yl)sulfonyl)phenyl)-piperidin-4-yl)methyl)piperidin-4-yl)-5-fluoro-1-methyl-1H-indazol-3-yl)dihydropyrimidine-2,4(1H,3H)-dione] |
| 1 to 100 nM | 1 to 10 nM | Cn1nc(N2CCC(=O)NC2=O)c2ccc(C3CCN(CC4(O)CCN(c5cccc(S(=O)(=O)N6CCC(Nc7ncc(Cl)cn7)CC6)c5)CC4)CC3)cc21 [Example 162, 1-(6-(1-((1-(3-((4-((5-chloropyrimidin-2-yl)amino)piperidin-1-yl)sulfonyl)phenyl)-4-hydroxypiperidin-4-yl)methyl)piperidin-4-yl)-1-methyl-1H-indazol-3-yl)dihydropyrimidine-2,4(1H,3H)-dione] |
